Patent US20160039825A1 (BIOGEN MA INC., priority 2013, published 2016)

Target: T1, Human ATX protein (Homo sapiens, UniProt Q13822)
T1 construct: made in house
Test: Autotaxin (ATX) assay, FRET with FS-3 substrate
Type: biochemical
Conditions: for IC50: upper bound bins (no greater than 100, 250 or 500 nM), FS-3 2 μM, ATX 1.0 μg/mL
Summary of the method: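 Hydrolysis of the FRET substrate FS-3 (2 μM final) unquenches fluorescein, read at excitation 485 nm and emission 538 nm after 2 h at room temperature, protected from light. Purified human ATX (1.0 μg/mL) and compound were first incubated for 30 min in pH 7.4 Tris/salt buffer containing 1 mg/mL fatty acid-free BSA.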

inhibition at 10 µM (10 uM compound) [%] | IC50 [µM] | Compound
60 | – | O=C(OCc1cc(C(F)(F)F)cc(C(F)(F)F)c1)N1CCCn2nc(CO)cc2C1 [Example 282, 3,5-bis(trifluoromethyl)benzyl 2-(hydroxymethyl)-7,8-dihydro-4H-pyrazolo[1,5-a][1,4]diazepine-5(6H)-carboxylate]
– | ≤ 0.1 | COCc1cc2n(n1)CCCN(C(=O)OCc1cc(C(F)(F)F)cc(C(F)(F)F)c1)C2 [Example 285, 3,5-bis(trifluoromethyl)benzyl 2-(methoxymethyl)-7,8-dihydro-4H-pyrazolo[1,5-a][1,4]diazepine-5(6H)-carboxylate]
– | ≤ 0.1 | O=C(OCc1cc(Cl)cc(C(F)(F)F)c1)N1CCCn2nc(C(O)C(F)(F)F)cc2C1 (centres unmarked) [Example 286, 3-chloro-5-(trifluoromethyl)benzyl 2-(2,2,2-trifluoro-1-hydroxyethyl)-7,8-dihydro-4H-pyrazolo[1,5-a][1,4]diazepine-5(6H)-carboxylate]
– | ≤ 0.5 | CC1(C)C(NCc2cc3n(n2)CCCN(C(=O)OCc2cc(C(F)(F)F)cc(C(F)(F)F)c2)C3)CC1C(=O)O (centres unmarked) [Example 287, 3-(((5-(((3,5-bis(trifluoromethyl)benzyl)oxy)carbonyl)-5,6,7,8-tetra-hydro-4H-pyrazolo[1,5-a][1,4]diazepin-2-yl)methyl)amino)-2,2-dimethylcyclo-butanecarboxylic acid]
– | ≤ 0.5 | O=C(OCc1cc(C(F)(F)F)cc(C(F)(F)F)c1)N1CCCn2nc(CN[C@H]3CC[C@@H](C(=O)O)CC3)cc2C1 [Example 288]
– | ≤ 0.25 | O=C(OCc1cc(C(F)(F)F)cc(C(F)(F)F)c1)N1CCCn2nc(CN[C@H]3CC[C@H](C(=O)O)CC3)cc2C1 [Example 289]
– | ≤ 0.5 | CN1CCN(Cc2cc3n(n2)CCCN(C(=O)OCc2cc(C(F)(F)F)cc(C(F)(F)F)c2)C3)CC1 [Example 290, 3,5-bis(trifluoromethyl)benzyl 2-((4-methylpiperazin-1-yl)methyl)-7,8-dihydro-4H-pyrazolo[1,5-a][1,4]diazepine-5(6H)-carboxylate]
– | ≤ 0.25 | O=C(OCc1cc(C(F)(F)F)cc(C(F)(F)F)c1)N1CCCn2nc(CN3CCCCC3)cc2C1 [Example 291]
– | ≤ 0.5 | CNCc1cc2n(n1)CCCN(C(=O)OCc1cc(C(F)(F)F)cc(C(F)(F)F)c1)C2 [Example 294]
– | ≤ 0.1 | O=C(OCc1cc(C(F)(F)F)cc(C(F)(F)F)c1)N1CCCn2nc(C(=O)N3CCN(CCO)CC3)cc2C1 [Example 298, 3,5-bis(trifluoromethyl)benzyl 2-(4-(2-hydroxyethyl)piperazine-1-carbonyl)-7,8-dihydro-4H-pyrazolo[1,5-a][1,4]diazepine-5(6H)-carboxylate]
– | ≤ 0.1 | CS(=O)(=O)NC(=O)c1cc2n(n1)CCCN(C(=O)OCc1cc(C(F)(F)F)cc(C(F)(F)F)c1)C2 [Example 299, 3,5-bis(trifluoromethyl)benzyl 2-((methylsulfonyl)carbamoyl)-7,8-dihydro-4H-pyrazolo[1,5-a][1,4]diazepine-5(6H)-carboxylate]
– | ≤ 0.25 | NS(=O)(=O)c1cc2n(n1)CCCN(C(=O)OCc1cc(C(F)(F)F)cc(C(F)(F)F)c1)C2 [Example 301, 3,5-bis(trifluoromethyl)benzyl 2-sulfamoyl-7,8-dihydro-4H-pyrazolo[1,5-a][1,4]diazepine-5(6H)-carboxylate]
– | ≤ 0.1 | CN(C)S(=O)(=O)c1cc2n(n1)CCCN(C(=O)OCc1cc(C(F)(F)F)cc(C(F)(F)F)c1)C2 [Example 302, 3,5-bis(trifluoromethyl)benzyl 2-(N,N-dimethylsulfamoyl)-7,8-dihydro-4H-pyrazolo[1,5-a][1,4]diazepine-5(6H)-carboxylate]
– | ≤ 0.1 | O=C(OCc1cc(C(F)(F)F)cc(C(F)(F)F)c1)N1CCCn2nc(S(=O)(=O)N3CCCCC3)cc2C1 [Example 304]
– | ≤ 0.1 | CN1CCN(S(=O)(=O)c2cc3n(n2)CCCN(C(=O)OCc2cc(C(F)(F)F)cc(C(F)(F)F)c2)C3)CC1 [Example 308]
– | ≤ 0.25 | O=C(OCc1cc(C(F)(F)F)cc(C(F)(F)F)c1)N1CCCn2nc(NC3CCNCC3)cc2C1 [Example 313, 3,5-bis(trifluoromethyl)benzyl 2-(piperidin-4-ylamino)-7,8-dihydro-4H-pyrazolo[1,5-a][1,4]diazepine-5(6H)-carboxylate]
– | ≤ 0.1 | CC(C)C1CC(Nc2cc3n(n2)CCCN(C(=O)OCc2cc(C(F)(F)F)cc(C(F)(F)F)c2)C3)CCN1 (centres unmarked) [Example 314]
– | ≤ 0.1 | CC1CC(Nc2cc3n(n2)CCCN(C(=O)OCc2cc(C(F)(F)F)cc(C(F)(F)F)c2)C3)CCN1 (centres unmarked) [Example 315]
– | ≤ 0.25 | O=C(OCc1cc(C(F)(F)F)cc(C(F)(F)F)c1)N1CCCn2nc(NC3CCCNC3)cc2C1 (centres unmarked) [Example 317]
– | ≤ 0.1 | CC(C)(C)C1CC(Nc2cc3n(n2)CCCN(C(=O)OCc2cc(C(F)(F)F)cc(C(F)(F)F)c2)C3)CCN1 (centres unmarked) [Example 319]
– | ≤ 0.1 | CC1(C)CC(Nc2cc3n(n2)CCCN(C(=O)OCc2cc(C(F)(F)F)cc(C(F)(F)F)c2)C3)CCN1 (centres unmarked) [Example 320]

inhibition at 10 µM (10 uM compound) [%] | IC50 [µM] | Compound
– | ≤ 0.1 | CC1CC(Nc2cc3n(n2)CCCN(C(=O)OCc2cc(C(F)(F)F)cc(C(F)(F)F)c2)C3)CC(C)N1 (centres unmarked) [Example 322]
– | ≤ 0.1 | CCC1CC(Nc2cc3n(n2)CCCN(C(=O)OCc2cc(C(F)(F)F)cc(C(F)(F)F)c2)C3)CCN1 (centres unmarked) [Example 323]
– | ≤ 0.1 | O=C(OCc1cc(C(F)(F)F)cc(C(F)(F)F)c1)N1CCCn2nc(NC3CCCCNC3)cc2C1 (centres unmarked) [Example 326]
– | ≤ 0.1 | O=C(OCc1cc(C(F)(F)F)cc(C(F)(F)F)c1)N1CCCn2nc(N3CCCCC3=O)cc2C1 [Example 328, 3,5-bis(trifluoromethyl)benzyl 2-(2-oxopiperidin-1-yl)-7,8-dihydro-4H-pyrazolo[1,5-a][1,4]diazepine-5(6H)-carboxylate]
– | ≤ 0.1 | CC(=O)Nc1cc2n(n1)CCCN(C(=O)OCc1cc(C(F)(F)F)cc(C(F)(F)F)c1)C2 [Example 337, 3,5-bis(trifluoromethyl)benzyl 2-acetamido-7,8-dihydro-4H-pyrazolo[1,5-a][1,4]diazepine-5(6H)-carboxylate]
– | ≤ 0.1 | CN1CCN(c2cc3n(n2)CCCN(C(=O)OCc2cc(C(F)(F)F)cc(C(F)(F)F)c2)C3)CC1 [Example 338, 3,5-bis(trifluoromethyl)benzyl 2-(4-methylpiperazin-1-yl)-7,8-dihydro-4H-pyrazolo[1,5-a][1,4]diazepine-5(6H)-carboxylate]
– | ≤ 0.25 | O=C(OCc1cc(C(F)(F)F)cc(C(F)(F)F)c1)N1CCCn2nc(N3CCNCC3)cc2C1 [Example 339]
– | ≤ 0.1 | CC1(C)CN(c2cc3n(n2)CCCN(C(=O)OCc2cc(C(F)(F)F)cc(C(F)(F)F)c2)C3)CCN1 [Example 340]
– | ≤ 0.1 | CCC1CN(c2cc3n(n2)CCCN(C(=O)OCc2cc(C(F)(F)F)cc(C(F)(F)F)c2)C3)CCN1 (centres unmarked) [Example 341]
– | ≤ 0.1 | O=C(OCc1cc(C(F)(F)F)cc(C(F)(F)F)c1)N1CCCn2nc(N3CCCNCC3)cc2C1 [Example 342]
– | ≤ 0.1 | CC1CN(c2cc3n(n2)CCCN(C(=O)OCc2cc(C(F)(F)F)cc(C(F)(F)F)c2)C3)CCN1 (centres unmarked) [Example 343]
– | ≤ 0.1 | CC1CN(c2cc3n(n2)CCCN(C(=O)OCc2cc(C(F)(F)F)cc(C(F)(F)F)c2)C3)CC(C)N1 (centres unmarked) [Example 345]
– | ≤ 0.1 | O=C(OCc1cc(C(F)(F)F)cc(C(F)(F)F)c1)N1CCCn2nc(N3CCN4CCC[C@H]4C3)cc2C1 [Example 346]
– | ≤ 0.1 | O=C(OCc1cc(C(F)(F)F)cc(C(F)(F)F)c1)N1CCCn2nc(N3CCN4CCC[C@@H]4C3)cc2C1 [Example 347]
– | ≤ 0.1 | O=C(OCc1cc(C(F)(F)F)cc(C(F)(F)F)c1)N1CCCn2nc(N3CCNC4(CC4)C3)cc2C1 [Example 348]
– | ≤ 0.1 | CN1CC2CN(c3cc4n(n3)CCCN(C(=O)OCc3cc(C(F)(F)F)cc(C(F)(F)F)c3)C4)CC2C1 (centres unmarked) [Example 349]
– | ≤ 0.1 | CCN1CC2CN(c3cc4n(n3)CCCN(C(=O)OCc3cc(C(F)(F)F)cc(C(F)(F)F)c3)C4)CC2C1 (centres unmarked) [Example 350]
– | ≤ 0.1 | O=C(OCc1cc(C(F)(F)F)cc(C(F)(F)F)c1)N1CCCn2nc(N3CC4CNCC4C3)cc2C1 (centres unmarked) [Example 351]
– | ≤ 0.25 | CN1CCC(Nc2cc3n(n2)CCCN(C(=O)OCc2cc(C(F)(F)F)cc(C(F)(F)F)c2)C3)CC1 [Example 352, 3,5-bis(trifluoromethyl)benzyl 2-((1-methylpiperidin-4-yl)amino)-7,8-dihydro-4H-pyrazolo[1,5-a][1,4]diazepine-5(6H)-carboxylate]
– | ≤ 0.1 | CN1CCN(c2cc3n(n2)CCCN(C(=O)OCc2cc(C(F)(F)F)cc(C(F)(F)F)c2)C3)CC12CC2 [Example 353]

Compound | inhibition at 10 µM (10 uM compound) [%] | IC50 [µM]
O=C(OCc1cc(C(F)(F)F)cc(C(F)(F)F)c1)N1CCCn2nc(CN3C4CCCC3CC4)cc2C1 [Example 292] | – | ≤ 0.25
O=C(OCc1cc(C(F)(F)F)cc(C(F)(F)F)c1)N1CCCn2nc(CN3C4CCCC3CCC4)cc2C1 [Example 293] | – | ≤ 0.1
O=C(O)C1CC2CCC(C1)N2Cc1cc2n(n1)CCCN(C(=O)OCc1cc(C(F)(F)F)cc(C(F)(F)F)c1)C2 (centres unmarked) [Example 296] | – | ≤ 0.25
O=C(O)C1CC2CCCC(C1)N2Cc1cc2n(n1)CCCN(C(=O)OCc1cc(C(F)(F)F)cc(C(F)(F)F)c1)C2 (centres unmarked) [Example 297] | – | ≤ 0.25
O=C(OCc1cc(C(F)(F)F)cc(C(F)(F)F)c1)N1CCCn2nc(S(=O)(=O)N3C4CCCC3CC4)cc2C1 [Example 305] | – | ≤ 0.1
O=C(OCc1cc(C(F)(F)F)cc(C(F)(F)F)c1)N1CCCn2nc(S(=O)(=O)N3C4CCCC3CCC4)cc2C1 [Example 306] | – | ≤ 0.1
O=C(OCc1cc(C(F)(F)F)cc(C(F)(F)F)c1)N1CCCn2nc(NC3CC4CCCC(C3)N4)cc2C1 (centres unmarked) [Example 316] | – | ≤ 0.1
O=C(OCc1cc(C(F)(F)F)cc(C(F)(F)F)c1)N1CCCn2nc(NC3CC4CCC(C3)N4)cc2C1 (centres unmarked) [Example 318] | – | ≤ 0.1
O=C(OCc1cc(C(F)(F)F)cc(C(F)(F)F)c1)N1CCCn2nc(N3CC4CCC(C3)N4)cc2C1 [Example 344] | – | ≤ 0.25
